Source: patent US20170022171A1, “2,5-DISUBSTITUTED CYCLOPENTANECARBOXYLIC ACIDS AND THEIR USE” (Bayer Pharma Aktiengesellschaft, priority 2014, published 2017)

What was measured:
Assay type in all cases: biochemical
[1] = biological target: T1, human macrophage elastase (HME/hMMP-12) (Homo sapiens, UniProt P39900); assay: In vitro HME inhibition test (standard or high-sensitivity); details: in some cases mean values
T1 construct: 0.5 nM HME; purchased R&D Systems 917-MP
Summary of the method: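 Fluorogenic assay: 0.5 nM autoactivated HME with 5 µM Mca-Pro-Leu-Gly-Leu-Glu-Glu-Ala-Dap(Dnp)-NH2 in HEPES pH 7.4 buffer (NaCl, CaCl2, ZnCl2, EDTA, Brij), 2 h at 37 °C; ex 323/em 393 nm. IC50 from fluorescence versus concentration. High-sensitivity format: ~0.05 nM enzyme, ~16 h incubation.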

MMP-8 = biological target: T2, MMP-8 (Homo sapiens, UniProt P22894); assay: In vitro MMP-8 inhibition test
T2 construct: purchased R&D Systems 908-MP
T2 sequence (P22894 101-467): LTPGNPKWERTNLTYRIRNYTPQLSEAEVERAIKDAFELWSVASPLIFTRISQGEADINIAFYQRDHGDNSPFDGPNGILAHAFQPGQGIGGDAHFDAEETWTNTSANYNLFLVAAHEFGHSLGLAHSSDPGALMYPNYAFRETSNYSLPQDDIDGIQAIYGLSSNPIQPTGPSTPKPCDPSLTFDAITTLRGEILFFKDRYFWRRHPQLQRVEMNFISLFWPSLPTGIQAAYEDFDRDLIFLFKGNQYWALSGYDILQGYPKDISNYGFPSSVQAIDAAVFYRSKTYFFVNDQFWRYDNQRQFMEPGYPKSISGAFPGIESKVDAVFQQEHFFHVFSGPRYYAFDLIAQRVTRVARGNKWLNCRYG
From the text: (§1) The MMP-mediated amidolytic cleavage of a suitable peptide substrate leads to an increase in fluorescent light here too. The signal intensity of the fluorescent light is directly proportional to the enzyme activity. The active concentration of a test compound at which half the enzyme is inhibited (50% signal intensity of the fluorescent light) is reported as the IC50 value.
(§2) Recombinant MMP-8 (from R&D Systems, 908-MP) is chemically activated in accordance with the manufacturer's instructions using APMA. 1 μl of the test compound to be analysed (as a solution in DMSO, suitable concentrations, for example, 1 nM to 30 μM) is pipetted into 24 μl of activated enzyme (final concentration, for example, 0.5 nM) in reaction buffer (50 mM Tris/HCl pH 7.5, 10 mM CaCl2, 150 mM NaCl, 0.05% Brij®-35) in a white 384-hole microtiter plate (MTP). The enzymatic reaction is started by adding the intramolecularly quenched Mca-Pro-Leu-Gly-Leu-Dpa(Dnp)-Ala-Arg-NH2 substrate (final concentration, for example, 10 μM; R&D Systems, ES-001), so as to result in a total test volume of 50 μl. The course of the MMP-8 reaction is measured by measuring the fluorescence intensity (excitation 320 nm, emission 410 nm) over a suitable period of time (for example over 120 min at a temperature of 32° C.).

MMP-10 = biological target: T3, MMP-10 (Homo sapiens, UniProt P09238); assay: In vitro MMP-10 inhibition test
T3 construct: purchased R&D Systems 910-MP
T3 sequence (P09238 99-476): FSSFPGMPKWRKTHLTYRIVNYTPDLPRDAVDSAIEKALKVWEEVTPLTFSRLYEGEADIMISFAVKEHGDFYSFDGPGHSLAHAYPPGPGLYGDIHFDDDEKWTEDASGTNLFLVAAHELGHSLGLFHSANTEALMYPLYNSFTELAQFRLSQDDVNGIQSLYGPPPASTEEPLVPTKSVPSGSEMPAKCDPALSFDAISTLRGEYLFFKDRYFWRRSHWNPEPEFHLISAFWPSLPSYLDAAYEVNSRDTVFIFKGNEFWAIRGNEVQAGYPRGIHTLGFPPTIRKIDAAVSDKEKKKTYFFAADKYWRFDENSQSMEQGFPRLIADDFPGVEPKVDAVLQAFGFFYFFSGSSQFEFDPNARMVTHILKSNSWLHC
From the text: as §1
as §2, with “MMP-10” for “MMP-8”, “910-MP)” for “908-MP)”, “2” for “0.5”, “Mca-Arg-Pro-Lys-Pro-Val-Glu-Nval-Trp-Arg-Lys(Dnp)-NH2” for “Mca-Pro-Leu-Gly-Leu-Dpa(Dnp)-Ala-Arg-NH2”, “ES-002),” for “ES-001),”

MMP-3 = biological target: T4, MMP-3 (Homo sapiens, UniProt P08254); assay: In vitro MMP-3 inhibition test
T4 construct: purchased R&D Systems 513-MP
T4 sequence (P08254 100-477): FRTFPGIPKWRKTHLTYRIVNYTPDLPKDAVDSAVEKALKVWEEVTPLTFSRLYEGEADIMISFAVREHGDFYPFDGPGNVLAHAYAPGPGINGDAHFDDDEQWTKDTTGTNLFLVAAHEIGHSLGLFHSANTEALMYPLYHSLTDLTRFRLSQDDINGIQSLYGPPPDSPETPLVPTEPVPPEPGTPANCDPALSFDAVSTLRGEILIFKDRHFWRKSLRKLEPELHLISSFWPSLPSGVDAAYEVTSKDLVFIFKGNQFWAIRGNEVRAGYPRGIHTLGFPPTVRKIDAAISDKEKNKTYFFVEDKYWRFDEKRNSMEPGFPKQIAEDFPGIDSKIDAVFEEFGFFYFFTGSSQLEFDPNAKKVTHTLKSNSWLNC
From the text: as §1
as §2, with “MMP-3” for “MMP-8”, “513-MP)” for “908-MP)”, “2” for “0.5”, “Mca-Arg-Pro-Lys-Pro-Val-Glu-Nval-Trp-Arg-Lys(Dnp)-NH2” for “Mca-Pro-Leu-Gly-Leu-Dpa(Dnp)-Ala-Arg-NH2”, “ES-002),” for “ES-001),”, “50” for “50 μl.”

MMP-9 = biological target: T5, MMP-9 (Homo sapiens, UniProt P14780); assay: In vitro MMP-9 inhibition test
T5 construct: purchased R&D Systems 911-MP
T5 sequence (P14780 107-707 limits assumed): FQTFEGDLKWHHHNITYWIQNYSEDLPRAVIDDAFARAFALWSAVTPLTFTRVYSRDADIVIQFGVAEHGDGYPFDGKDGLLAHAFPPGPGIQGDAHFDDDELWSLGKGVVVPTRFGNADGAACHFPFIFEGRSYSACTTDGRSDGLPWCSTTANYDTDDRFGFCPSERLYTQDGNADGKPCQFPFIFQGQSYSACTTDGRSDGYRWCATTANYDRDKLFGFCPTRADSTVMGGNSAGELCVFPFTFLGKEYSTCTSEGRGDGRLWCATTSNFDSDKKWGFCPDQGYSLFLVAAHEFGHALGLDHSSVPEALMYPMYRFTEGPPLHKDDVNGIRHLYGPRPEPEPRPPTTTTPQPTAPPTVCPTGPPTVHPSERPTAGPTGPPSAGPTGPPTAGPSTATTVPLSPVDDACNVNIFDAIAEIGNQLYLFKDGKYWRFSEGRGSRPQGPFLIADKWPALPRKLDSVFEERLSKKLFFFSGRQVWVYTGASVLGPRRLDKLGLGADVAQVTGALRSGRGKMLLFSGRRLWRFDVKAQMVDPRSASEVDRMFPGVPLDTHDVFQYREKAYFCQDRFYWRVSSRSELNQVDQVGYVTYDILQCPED
From the text: as §1
as §2, with “MMP-9” for “MMP-8”, “911-MP)” for “908-MP)”, “0.1” for “0.5”

T1 sequence (P39900 106-470): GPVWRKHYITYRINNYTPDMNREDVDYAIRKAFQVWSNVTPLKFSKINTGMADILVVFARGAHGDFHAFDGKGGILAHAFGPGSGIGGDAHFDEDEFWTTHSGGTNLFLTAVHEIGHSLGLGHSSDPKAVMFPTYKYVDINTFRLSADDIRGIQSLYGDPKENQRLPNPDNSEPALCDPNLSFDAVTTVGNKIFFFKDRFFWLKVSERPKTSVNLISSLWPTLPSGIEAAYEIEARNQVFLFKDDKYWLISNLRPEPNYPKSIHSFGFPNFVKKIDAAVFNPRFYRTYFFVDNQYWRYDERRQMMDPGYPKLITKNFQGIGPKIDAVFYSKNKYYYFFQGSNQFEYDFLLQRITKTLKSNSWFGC

Molecule	IC50 [1] [nM]	IC50 (MMP-8) [nM]	IC50 (MMP-10) [nM]	IC50 (MMP-3) [nM]	IC50 (MMP-9) [nM]
Cc1cccc(COc2ccc(C(=O)[C@@H]3CC[C@H](Cn4nnc5ccc(C)cc5c4=O)[C@H]3C(=O)O)cc2)c1 (single isomer, unassigned) [Example 98, (+)-(1RS,2RS,5SR)-2-{4-[(3-Methylbenzyl)oxy]benzoyl}-5-[(6-methyl-4-oxo-1,2,3-benzotriazin-3(4H)-yl)methyl]cyclopentanecarboxylic acid]	0.1	64	55	680	280
Cc1cccc(COc2ccc(C(=O)[C@H]3CC[C@@H](Cn4nnc5ccc(C)cc5c4=O)[C@@H]3C(=O)O)cc2)c1 (racemic) [Example 97, (+/−)-(1RS,2RS,5SR)-2-{4-[(3-Methylbenzyl)oxy]benzoyl}-5-[(6-methyl-4-oxo-1,2,3-benzotriazin-3(4H)-yl)methyl]cyclopentanecarboxylic acid]	0.4	310	160	2000	740
O=C(O)[C@@H]1[C@@H](Cn2nnc3ccc(C(F)(F)F)cc3c2=O)CC[C@H]1C(=O)c1ccc(OCCC2CCCCC2)cc1 (single isomer, unassigned) [Example 52, (+)-(1RS,2RS,5SR)-2-[4-(2-Cyclohexylethoxy)benzoyl]-5-{[4-oxo-6-(trifluoromethyl)-1,2,3-benzotriazin-3(4H)-yl]methyl}cyclopentanecarboxylic acid]	0.017	38	52	380	830
O=C(O)[C@H]1[C@H](Cn2nnc3ccccc3c2=O)CC[C@@H]1C(=O)c1ccc(OCCC2CCCCC2)cc1 (racemic) [Example 5, (+/−)-(1RS,2RS,5SR)-2-[4-(2-Cyclohexylethoxy)benzoyl]-5-[(4-oxo-1,2,3-benzotriazin-3(4H)-yl)methyl]cyclopentanecarboxylic acid]	0.07	250	93	1500	960
O=C(O)[C@@H]1[C@@H](Cn2nnc3ccc(C(F)(F)F)cc3c2=O)CC[C@H]1C(=O)c1ccc(OCc2ccc(F)cc2)cc1 (single isomer, unassigned) [Example 13, (+)-(1RS,2RS,5SR)-2-{4-[(4-Fluorobenzyl)oxy]benzoyl}-5-{[4-oxo-6-(trifluoromethyl)-1,2,3-benzotriazin-3(4H)-yl]methyl}cyclopentanecarboxylic acid]	0.018	0.88	22	62	4.4
(+)-(1RS,2RS,5SR)-2-{4-[(3,4-Dichlorobenzyl)oxy]benzoyl}-5-{[4-oxo-6-(trifluoromethyl)-1,2,3-benzotriazin-3(4H)-yl]methyl}cyclopentanecarboxylic acid [Example 28]	0.036	43	130	250	260
COc1cccc(COc2ccc(C(=O)[C@H]3CC[C@@H](Cn4nnc5ccc(C)cc5c4=O)[C@@H]3C(=O)O)cc2)c1 (racemic) [Example 106, (+/−)-(1RS,2RS,5SR)-2-{4-[(3-Methoxybenzyl)oxy]benzoyl}-5-[(6-methyl-4-oxo-1,2,3-benzotriazin-3(4H)-yl)methyl]cyclopentanecarboxylic acid]	0.078	11	39	450	76
O=C(O)[C@H]1[C@H](Cn2nnc3ccccc3c2=O)CC[C@@H]1C(=O)c1ccc(OCc2ccc(Cl)c(Cl)c2)cc1 (racemic) [Example 3, (+/−)-(1RS,2RS,5SR)-2-{4-[(3,4-Dichlorobenzyl)oxy]benzoyl}-5-[(4-oxo-1,2,3-benzotriazin-3(4H)-yl)methyl]cyclopentanecarboxylic acid]	0.055	260	430	1500	900
